Test results reported in ChEMBL document CHEMBL1151604, “Enantiomerically pure synthesis and antiviral evaluation of [(2S, 3S)-bis(hydroxymethyl)azetidin-1-yl] purine nucleosides: Analogs of oxetanocin-A” (Bioorg Med Chem Lett, 1995).
Converted amounts (≈) assume the structure as drawn.

Experiments:
Assay type in all cases: functional, cell-based
MT4 = assay: In vitro evaluation of antiviral activity against HSV-1 (Herpes simplex virus-1) induced cytopathic effect in MT-4 cells by indirect immunofluorescence assay; conditions: Homo sapiens
Vero [1] = assay: Compound was evaluated for cytotoxicity against vero cells up to a concentration of 100 ug/mL; non toxic; conditions: Chlorocebus sabaeus
Vero [2] = assay: In vitro evaluation of antiviral activity against HSV-1 (Herpes simplex virus-1) induced cytopathic effect in vero cells by a plaque reduction assay; conditions: Chlorocebus sabaeus
Vero [3] = assay: In vitro evaluation of antiviral activity against HSV-2 (Herpes simplex virus-2) induced cytopathic effect in vero cells by a plaque reduction assay; conditions: Chlorocebus sabaeus

SMILES	EC50 (MT4) [µg/mL]	Activity (Vero [1])	EC50 (Vero [2]) [µg/mL]	EC50 (Vero [3]) [µg/mL]
Nc1ncnc2c1ncn2N1CC(CO)C1CO (configuration not stated)	0.37 (≈ 1.48 µM)	Not toxic	33.2 (≈ 133 µM)	34.9 (≈ 139 µM)
Cc1cn([C@H]2C[C@H](N=[N+]=[N-])[C@@H](CO)O2)c(=O)[nH]c1=O [ZIDOVUDINE]	0.0032 (≈ 0.012 µM)			
Nc1nc2c(ncn2COCCO)c(=O)[nH]1 [ACYCLOVIR]			0.32 (≈ 1.42 µM)	0.39 (≈ 1.73 µM)
Nc1nc(O)c2ncn(N3CC(CO)C3CO)c2n1 (configuration not stated)	0.46 (≈ 1.73 µM)	Not toxic	5.36 (≈ 20.1 µM)	6.32 (≈ 23.7 µM)
O=c1[nH]cnc2c1ncn2[C@H]1CC[C@@H](CO)O1 [DIDANOSINE]	0.46 (≈ 1.95 µM)			
